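All cell lines were grown in 96-well plates and treated with compound for 48 hours. GI50 is the concentration that inhibits growth by half.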 The source made the active and inactive calls. Rule as the data show it: active = GI50 up to about 1.1 µM and inactive = higher.
Columns and labels:
Assay in all cases: NCI-60 cell line screen, 48 h
[1] = test system: HCT-116
[2] = test system: KM12
[3] = test system: OVCAR-4
[4] = test system: UACC-62
[5] = test system: NCI-H23
[6] = test system: SNB-19
[7] = test system: UACC-257
[8] = test system: SK-MEL-28
[9] = test system: OVCAR-3
[10] = test system: A549
[11] = test system: HL-60
[12] = test system: NCI-H522
[13] = test system: SN12C
[14] = test system: MOLT-4
[15] = test system: HOP-62
[16] = test system: HT-29
[17] = test system: ACHN
[18] = test system: SW-620
[19] = test system: COLO 205
[20] = test system: SK-OV-3

Measured: GI50

CN(CCNC(=O)c1c[nH]c2c1Cc1ccccc1-2)CCNC(=O)c1c[nH]c2c1Cc1ccccc1-2
inactive: [1] 36.1 µM | [2] 33.3 µM | [3] 59.3 µM | [4] 18 µM | [5] 41.5 µM | [6] 58.2 µM | [7] 43.8 µM | [8] 48.5 µM | [9] 21 µM | [10] 43.2 µM | [11] 31 µM | [12] 19.6 µM | [13] 66.4 µM | [14] 24.7 µM | [15] 26.4 µM | [16] 35.1 µM | [17] 43.6 µM | [18] 39.4 µM | [19] 35 µM

CC1(C)OC2C(CO)OC(N/C(=N/C#N)Oc3ccccc3)C2O1 (stereo not drawn)
inactive: [1] > 100 µM | [2] > 100 µM | [3] > 100 µM | [4] > 100 µM | [5] > 100 µM | [6] > 100 µM | [7] > 100 µM | [8] > 100 µM | [9] > 100 µM | [10] > 100 µM | [11] > 100 µM | [13] > 100 µM | [14] > 100 µM | [15] > 100 µM | [16] > 100 µM | [17] > 100 µM | [18] > 100 µM | [19] > 100 µM | [20] > 100 µM

CC(C)(C)c1ccc(OCCOCCOc2ccc(C(C)(C)C)cc2S(N)(=O)=O)c(S(N)(=O)=O)c1
inactive: [1] 17.4 µM | [2] 52.1 µM | [3] > 100 µM | [4] 52.1 µM | [5] > 100 µM | [6] > 100 µM | [7] 45.6 µM | [8] 94.6 µM | [9] > 100 µM | [10] 35.8 µM | [11] 14.5 µM | [13] > 100 µM | [14] 4.46 µM | [15] > 100 µM | [16] 6.84 µM | [17] 29.1 µM | [18] > 100 µM | [19] > 100 µM | [20] > 100 µM

CNC(=S)N(C)C(=S)Nn1c(=O)c(C)nn(C)c1=S
inactive: [1] > 100 µM | [2] > 100 µM | [3] > 100 µM | [4] > 100 µM | [5] > 100 µM | [6] > 100 µM | [7] > 100 µM | [8] > 100 µM | [10] > 100 µM | [11] > 100 µM | [12] > 100 µM | [13] > 100 µM | [14] > 100 µM | [15] > 100 µM | [16] > 100 µM | [17] > 100 µM | [18] > 100 µM | [19] > 100 µM

CCC1CN(C(=O)c2ccccc2)C(Cc2c[nH]c3ccccc23)C(=O)C1CC(=O)OC (stereo not drawn)
inactive: [2] 59.2 µM | [3] > 100 µM | [4] 32.1 µM | [5] 74.6 µM | [7] > 100 µM | [8] > 100 µM | [11] 31.6 µM | [12] 50.9 µM | [13] > 100 µM | [14] 27.7 µM | [15] 39 µM | [16] 28 µM | [17] > 100 µM | [18] > 100 µM | [19] > 100 µM | [20] > 100 µM

COc1ccccc1NS(=O)(=O)c1cc(C(C)(C)C)ccc1OCCOc1ccc(C(C)(C)C)cc1S(=O)(=O)Nc1ccccc1OC
inactive: [1] > 100 µM | [2] 45.4 µM | [3] > 100 µM | [4] > 100 µM | [5] > 100 µM | [6] > 100 µM | [7] > 100 µM | [8] > 100 µM | [9] > 100 µM | [10] > 100 µM | [11] > 100 µM | [13] > 100 µM | [14] > 100 µM | [15] > 100 µM | [16] > 100 µM | [17] > 100 µM | [18] > 100 µM | [19] > 100 µM | [20] > 100 µM

C/C(=N\NC(=O)C(N)=O)c1c(O)cc(C)oc1=O
inactive: [1] > 100 µM | [2] > 100 µM | [3] > 100 µM | [4] > 100 µM | [5] > 100 µM | [6] > 100 µM | [7] > 100 µM | [8] > 100 µM | [10] > 100 µM | [11] > 100 µM | [13] > 100 µM | [14] > 100 µM | [15] > 100 µM | [16] > 100 µM | [17] > 100 µM | [18] > 100 µM | [20] > 100 µM

COc1ccc2c(c1)C(=O)CC1c3cnccc3C(=O)N21 (stereo not drawn)
inactive: [1] > 73.6 µM | [2] > 100 µM | [3] > 100 µM | [4] > 63.7 µM | [5] > 100 µM | [6] > 72.1 µM | [7] > 100 µM | [8] > 91.2 µM | [9] > 100 µM | [10] > 100 µM | [12] > 100 µM | [13] > 100 µM | [14] > 100 µM | [15] > 27.8 µM | [16] > 100 µM | [17] > 100 µM | [18] > 100 µM | [19] > 100 µM | [20] > 100 µM

NCCC1([N+](=O)[O-])C=CN=CC1 (stereo not drawn)
inactive: [1] > 100 µM | [2] > 100 µM | [3] > 100 µM | [4] > 100 µM | [5] > 100 µM | [6] > 100 µM | [7] > 100 µM | [8] > 100 µM | [10] > 100 µM | [11] > 100 µM | [12] > 100 µM | [13] > 100 µM | [14] > 100 µM | [16] > 100 µM | [17] > 100 µM | [18] > 100 µM | [19] > 100 µM | [20] > 100 µM

CC(NNC(=O)c1cc[n+]([BH2-]C#N)cc1)c1cccc(F)c1 (stereo not drawn)
inactive: [1] > 100 µM | [2] > 100 µM | [3] 69.8 µM | [4] > 100 µM | [6] > 100 µM | [7] > 100 µM | [8] > 100 µM | [9] > 100 µM | [10] > 100 µM | [11] 50.5 µM | [12] > 100 µM | [13] > 100 µM | [14] > 100 µM | [17] > 100 µM | [18] > 100 µM | [19] > 100 µM

C[C@]12CCC(=O)C=C1CC[C@@H]1C2CC[C@]2(C)Nc3[nH]ncc3CC12 (stereo partly drawn)
inactive: [1] > 100 µM | [2] > 100 µM | [3] > 100 µM | [4] > 100 µM | [5] > 100 µM | [7] > 100 µM | [8] > 100 µM | [9] > 100 µM | [10] > 100 µM | [11] > 100 µM | [14] > 100 µM | [15] > 100 µM | [16] > 100 µM | [17] > 100 µM | [18] > 100 µM | [20] > 100 µM

CC1CCCCNC1=S (stereo not drawn)
inactive: [2] > 10 µM | [4] > 10 µM | [5] > 10 µM | [6] > 10 µM | [7] > 10 µM | [8] > 10 µM | [9] > 10 µM | [10] > 10 µM | [11] > 10 µM | [13] > 10 µM | [14] > 10 µM | [15] > 10 µM | [16] > 10 µM | [17] > 10 µM | [18] > 10 µM | [20] > 10 µM

Cc1nn(C(=O)Cc2ccccc2)c2c1C(c1ccc3ccccc3c1O)SC(=N)N2 (stereo not drawn)
inactive: [1] > 100 µM | [2] > 100 µM | [4] > 100 µM | [5] > 100 µM | [6] > 100 µM | [7] > 100 µM | [8] > 100 µM | [10] > 100 µM | [11] 39.6 µM | [12] 67.8 µM | [13] > 100 µM | [14] 37.8 µM | [15] > 100 µM | [16] > 100 µM | [17] > 100 µM | [18] > 100 µM | [19] > 100 µM | [20] > 100 µM

O=P(O)(Cc1ccccc1)c1ccccc1-c1ccccc1
inactive: [1] > 100 µM | [2] 77.3 µM | [3] > 100 µM | [4] > 100 µM | [5] > 100 µM | [6] > 100 µM | [7] > 100 µM | [8] > 100 µM | [10] 56 µM | [11] > 100 µM | [12] > 100 µM | [13] > 100 µM | [14] > 100 µM | [15] > 100 µM | [16] > 100 µM | [17] > 100 µM | [18] > 100 µM | [19] 57.8 µM | [20] > 100 µM

CC(NC(=O)C(N)CC(=O)O)NC(=O)C1CCC1 (stereo not drawn)
inactive: [1] > 100 µM | [2] > 100 µM | [3] > 100 µM | [4] > 100 µM | [5] > 100 µM | [6] > 100 µM | [7] > 100 µM | [8] > 100 µM | [9] > 100 µM | [10] > 100 µM | [12] > 100 µM | [13] > 100 µM | [14] > 100 µM | [15] > 100 µM | [16] > 100 µM | [17] > 100 µM | [18] > 100 µM | [19] > 100 µM | [20] 28.2 µM
